Test results from patent publication US20230158042A1, “COMBINATION CANCER THERAPY WITH PENTAAZA MACROCYCLIC RING COMPLEX AND HORMONE THERAPY AGENT” (Galera Labs, LLC, priority 2020, published 2023).

How the values were obtained:
[1] = tested on: Sirt3^-/--MT-SIRT3^DN allografts; test: Sirt3-/--MT-SIRT3^DN mammary allograft tumor growth (bioluminescence); format: in vivo; conditions: GC4419 by IP every other day for five weeks; compared to control mice
Description: FIGS. 29a-29b are plots showing that the growth of murine mammary allograft tumors is inhibited by exposure to the MnSOD mimic GC4419 much more in cells without expression of deacetylation competent SIRT3. […] Mice were subsequently injected with luciferin potassium (120 mg/kg) every week and signal intensity will be quantified. Error bars represent one SD from the mean.
These cell lines were subsequently infected with and selected to express either a SIRT3 wild-type (Sirt3^-/--MT-SIRT3^WT) or deacetylation activity null (Sirt3^-/--MT-SIRT3^DN) gene and a lenti-luciferase to assess tumor growth by bioluminescence. Allograft tumor mice were split into four groups: (1) control, untreated Sirt3^-/--MT-SIRT3^DN; (2) GC4419 treated Sirt3^-/--MT-SIRT3^DN; (3) control, untreated Sirt3^-/--MT-SIRT3^WT; and (4) GC4419 treated Sirt3^-/--MT-SIRT3^WT. […] Accordingly, it was shown that the growth of murine mammary allograft tumors is inhibited by pharmacologically mimicking the activity of deacetylated lysine 68 MnSOD with a manganese pentaazamacrocyclic dismutase mimetic much more in tumors without deacetylation competent SIRT3. Further, this supports that selection of tumors displaying an AcK68 signature could increase response to treatment with a MnPAM dismutase mimetic (or other methods) alone or in combination with other therapies.

[2] = tested on: Tam resistant as well as loss of Sirt3 tumor cell lines; test: In vitro Tam resistance in Tam resistant and loss of Sirt3 tumor cell lines; format: cell-based; conditions: data not shown
MCF7-Cispl-R cells = test: Cell ROS levels in cisplatin-resistant MCF7 cells; format: cell-based, human; conditions: data not shown
Description: FIGS. 27a-27c are an image and graphs showing that MnSOD—AcK68/ROS/HIF2α dysregulation directs PanR (multi-therapy resistance to cancer therapeutics). […] In FIG. 27b, ROS was measured in MCF7-Cispl-R cells, compared with MCF7 cells, using an Amplex Red assay. In FIG. 27c, MCF7 and MCF7-MnSOD^K68Q cells were measured by clonogenic cell survival assays, without and with cisplatin exposure, and infected with scrambled (C) or HIF2α shRNA. All experiments were done in triplicate. Error bars are ± 1 SEM. * p < 0.05.

MCF7-MnSOD^K68Q cells [3] = test: Ki-67 staining in MCF7-MnSOD^K68Q cells; format: cell-based, human; conditions: 5 µM GC4419 for 5 days
Description: (§1) MCF7-MnSOD^K68Q cells (in FIGS. 17a and 17b) and T47D-MnSOD^K68Q cells (in FIGS. 17c and 17d) were treated with 5 µM GC4419 and/or 1 µM 4-hydroxy-Tam for 5 days, and then stained for Ki-67 as well as DAPI. Quantifications of average Ki-67 intensity are shown in the bar graphs. In FIG. 17e, MCF7 and MCF7-HTR cells were implanted into both hind limbs of nude mice and tumor volumes were measured every 3 days for 6 weeks and the number of tumors that successfully implanted versus the total number of mice infected with MCF7 and MCF7-HTR as well as the average tumor weight and tumor size are shown. Representative images are shown. All experiments were done in triplicate. Error bars represent ± 1 SEM. ***p < 0.001.
(§2) Cells seeded on glass coverslips were fixed in 4% paraformaldehyde and then blocked with 1% BSA and 10% normal goat serum in 1x PBS. Cells were incubated with anti-Ki-67 (c-bioscience) antibody in 1x PBS followed by incubation with goat anti-rabbit IgG conjugated with Alexa Fluor 647 (Invitrogen) in 1x PBS with 5% goat serum. Cells were washed in 1x PBS, mounted, and imaged with a fluorescence microscope. Fluorescence images were captured using a laser scanning confocal microscope (Nikon A1 R). The paired images in all the figures were collected at the same gain and offset settings. Post-collection processing was applied uniformly to all paired images.

T47D-HTR cells = test: Clonogenic cell survival, hydroxy-Tam-resistant T47D cells with GC4419; format: cell-based, human; conditions: 5 µM GC4419 for 5 days; 1 µM hydroxy-Tam
Description: (§3) Clonogenic cell survival assay. For the clonogenic survival analysis, exponentially growing cells were replated using appropriate dilutions, and clonogenic survival was evaluated after 14 days in regular growth medium. Cells were stained with crystal violet, and colonies of >50 cells were counted and utilized to calculate clonogenic survival^46.
(§4) To test parameters indicative of oxidative stress, a clonogenic assay with hydroxy-Tam and MnPAM dismutase mimetic treatments was performed. Cells were plated at a density of 50,000 cells per 60-mm dish and treated with 1 µM hydroxy-Tam (Sigma) and 5 µM GC4419 (Galera Therapeutics) for a total of 120 h. This protocol was repeated with a fresh medium change every 24 h for 5 days. On day 6, the cells were trypsinized, counted, and replated in control medium using appropriate dilutions, and clonogenic survival was evaluated.

MCF7-HTR cells = test: Clonogenic cell survival, hydroxy-Tam-resistant MCF7 cells with GC4419; format: cell-based, human; conditions: 5 µM GC4419 for 5 days; 1 µM hydroxy-Tam
Description: as §3, §4

[4] = tested on: LNCaP-MnSOD^K68Q xenografts; test: LNCaP-MnSOD^K68Q hind limb xenograft growth in nude mice; format: in vivo; conditions: GC4419 10 mg/kg, once per week; tumor volumes for 46 days
Description: FIGS. 21a-21b are a chart and graph showing that pharmacologically mimicking the activity of deacetylated lysine 68 MnSOD with a manganese pentaazamacrocyclic dismutase mimetic both inhibited the growth of LNCaP-ENZR tumors and reversed the enzalutamide resistance in LNCaP-ENZR / LNCaP—MnSOD^K68Q cells and tumors. In FIG. 21a, clonogenic cell survival experiments were performed in LNCaP-ENZR (left two bars) and LNCaP—MnSOD^K68Q (right two bars) treated with ENZ, with or without GC4419 (20 µM) for 5 days. […] Tumor volumes were measured three times a week for 46 days. For each group n=10. Error bars ± 1 SEM. All experiments done in triplicate. **p < 0.01.

T47D-MnSOD^K68Q cells = test: Ki-67 staining in T47D-MnSOD^K68Q cells; format: cell-based, human; conditions: 5 µM GC4419 for 5 days
Description: as §1, §2

MCF-7-MnSOD^K68Q cells = test: Clonogenic cell survival after 5 Gy ionizing radiation in MCF-7-MnSOD^K68Q cells; format: cell-based, human; conditions: 5 µM GC4419 for 5 days
Description: FIGS. 30a-30b are plots showing that mimicking acetylation of MnSOD—K68 with MnSOD^K68Q expression induces ionizing radiation resistance (IRR) in breast cancer cells, and that pharmacologically mimicking the activity of deacetylated lysine 68 MnSOD with a manganese pentaazamacrocyclic dismutase mimetic reverses this IRR. […] All experiments were done in triplicate. Error bars represent ± 1 SEM. ***p < 0.001. Data were analyzed by a t-test.

MCF7-MnSOD^K68Q cells [5] = test: Clonogenic cell survival in MCF7-MnSOD^K68Q cells; format: cell-based, human; conditions: GC4419 10 µM alone
Description: FIGS. 25a-25b show clonogenic cell survival studies in MCF7-MnSOD^K68Q cells exposed to either: Fulv at 100 nM (in FIG. 25a); or Palb at 0.5 µM (in FIG. 25b) using standard methods. […] Error bars are ± 1 SEM. Experiments in triplicate. *** p < 0.001.
as §3

Question: With `[Cl][Mn][Cl].c1cc2nc(c1)CN[C@H]1CCCC[C@@H]1NCCN[C@H]1CCCC[C@@H]1NC2` [GC4419] as the compound, how does the tumor growth [1] read?
Answer: significant decrease in tumor growth

Question: And the Tam resistance [2]?
Answer: reverses Tam resistance

Question: What about the “cell ROS levels” value (MCF7-Cispl-R cells) of the same compound?
Answer: decreased cell ROS levels

Question: And the “Ki-67 IHC staining” value (MCF7-MnSOD^K68Q cells [3])?
Answer: reversed the increase in Ki-67 IHC staining

Question: And the “hydroxy-Tam resistance (clonogenic cell survival)” value (T47D-HTR cells)?
Answer: became sensitive to hydroxy-Tam

Question: What about the “hydroxy-Tam resistance (clonogenic cell survival)” value (MCF7-HTR cells) of the same compound?
Answer: became sensitive to hydroxy-Tam

Question: And the xenograft growth [4]?
Answer: significant inhibition of xenograft growth

Question: And the “Ki-67 IHC staining” value (T47D-MnSOD^K68Q cells)?
Answer: reversed the increase in Ki-67 IHC staining

Question: What about the “ionizing radiation resistance (IRR) phenotype, clonogenic cell survival” value (MCF-7-MnSOD^K68Q cells) of the same compound?
Answer: reversed the IRR phenotype

Question: And the “cell growth (clonogenic)” value (MCF7-MnSOD^K68Q cells [5])?
Answer: inhibited the growth of MnSOD^K68Q breast cancer cells
